Measurements reported in ChEMBL document CHEMBL1921696, “Synthesis and biological evaluation of salicylate-based compounds as a novel class of methionine aminopeptidase inhibitors” (Bioorg Med Chem Lett, 2011).
≈ marks a conversion by molar mass, not a printed value.

Assays:
[1] = Inhibition of Escherichia coli recombinant methionine aminopeptidase expressed in Escherichia coli BL21 (DE3) using MetAMC as substrate in presence of Co(II)
[2] = Inhibition of Escherichia coli recombinant methionine aminopeptidase expressed in Escherichia coli BL21 (DE3) using MetAMC as substrate in presence of Mn(II)
[3] = Inhibition of Escherichia coli recombinant methionine aminopeptidase expressed in Escherichia coli BL21 (DE3) using MetAMC as substrate in presence of Fe(II)
[4] = test system: Escherichia coli; assay: Antibacterial activity against Escherichia coli AS19 after 10 hrs by fluorescence assay; assay type: functional, organism-based; settings: AS19, 10 h

| SMILES | IC50 [1] [µM] | IC50 [2] [µM] | IC50 [3] [µM] | IC50 [4] [µM] | MIC [4] [µg/mL] |
| --- | --- | --- | --- | --- | --- |
| O=C(O)c1ccc(-c2cc(Cl)sc2Cl)cc1O | 118 | 97.5 | 29.9 | 51.4 | 33 (≈ 114 µM) |
| O=C(O)c1ccc(-c2ccc(Cl)s2)c(F)c1 | 166 | 118 | 203 | 641 | 297 (≈ 1160 µM) |
| COc1cc(Cl)c(-c2ccc(C)s2)cc1C(=O)O | 70.9 | 11.4 | 106 | > 1000 | > 282 |
| O=C(O)c1ccc(-c2cccs2)c(F)c1 | 251 | 143 | 267 | > 1000 | > 222 |
| COc1cc(-c2ccc(C)s2)ccc1C(=O)O | 256 | 160 | 270 | 550 | 272 (≈ 1100 µM) |
| COc1cc(Cl)c(-c2cccs2)cc1C(=O)O | 203 | 19.1 | 208 | > 1000 | > 268 |
| COc1cc(-c2cccs2)ccc1C(=O)O | 254 | 89.8 | 500 | > 1000 | > 234 |
| O=C(O)c1cc(-c2cccs2)c(Cl)cc1O | 88.1 | 33.7 | 3.1 | 74.6 | 38 (≈ 149 µM) |
| O=C(O)c1ccc(-c2cccs2)cc1 | 249 | 159 | > 500 | > 1000 | > 204 |
| Cc1ccc(-c2cc(C(=O)O)c(O)cc2Cl)s1 | 77.4 | 37.8 | 6.8 | 161 | 87 (≈ 324 µM) |
| O=C(O)c1cc(-c2ccc(Cl)s2)c(Cl)cc1O | 74.1 | 36.6 | 4.9 | 48.5 | 30 (≈ 104 µM) |
| Cc1ccc(-c2ccc(C(=O)O)c(O)c2)s1 | 81 | 90.7 | 109 | 73.1 | 47 (≈ 201 µM) |
| O=C(O)c1ccc(-c2ccc(Cl)s2)cc1O | 87.7 | 62.7 | 73 | 34.1 | 28 (≈ 110 µM) |
| COc1cc(-c2cc(Cl)sc2Cl)ccc1C(=O)O | 290 | 97.3 | > 500 | 829 | 521 (≈ 1720 µM) |
| O=C(O)c1ccc(-c2cccs2)cc1O | 65.2 | 80.2 | 39.1 | 112 | 100 (≈ 454 µM) |
| COc1ccc(C(=O)O)cc1-c1cccs1 | > 500 | 17.4 | 192 | > 1000 | > 234 |
| Cc1ccc(-c2ccc(C(=O)O)cc2F)s1 | 329 | 336 | 253 | 871 | 306 (≈ 1300 µM) |
| COc1ccc(C(=O)O)cc1-c1ccc(C)s1 | 464 | 33.8 | 167 | > 1000 | > 248 |
